Laboratory results published in patent US12122763B2, “Substituted piperidines for androgen receptor degradation” (UBIX THERAPEUTICS, INC., priority 2020, dated 2024).

Biological target: T1, Androgen Receptor (AR) protein (Homo sapiens, UniProt P10275, T878A)
T1 construct: endogenous in cells; host or cells: LNCaP
Test: Androgen Receptor (AR) protein degradation assay in LNCaP cells, western blotting
Assay type: cell-based
Settings: 20 h; for inhibition at 0.01 µM: 0.01 μM compound; for inhibition at 0.1 µM: 0.1 μM compound; for inhibition at 1 µM: 1 μM compound
Method in brief: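 LNCaP prostate cancer cells were cultured 3 days, then treated with compound for 20 h. Lysates in 1% SDS buffer were normalised by BCA, and 8 μg protein was run on 4–12% Bis-Tris gels. AR was immunoblotted with chemiluminescence, using GAPDH/β-actin as loading controls.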

T1 sequence (P10275 whole entry T878A): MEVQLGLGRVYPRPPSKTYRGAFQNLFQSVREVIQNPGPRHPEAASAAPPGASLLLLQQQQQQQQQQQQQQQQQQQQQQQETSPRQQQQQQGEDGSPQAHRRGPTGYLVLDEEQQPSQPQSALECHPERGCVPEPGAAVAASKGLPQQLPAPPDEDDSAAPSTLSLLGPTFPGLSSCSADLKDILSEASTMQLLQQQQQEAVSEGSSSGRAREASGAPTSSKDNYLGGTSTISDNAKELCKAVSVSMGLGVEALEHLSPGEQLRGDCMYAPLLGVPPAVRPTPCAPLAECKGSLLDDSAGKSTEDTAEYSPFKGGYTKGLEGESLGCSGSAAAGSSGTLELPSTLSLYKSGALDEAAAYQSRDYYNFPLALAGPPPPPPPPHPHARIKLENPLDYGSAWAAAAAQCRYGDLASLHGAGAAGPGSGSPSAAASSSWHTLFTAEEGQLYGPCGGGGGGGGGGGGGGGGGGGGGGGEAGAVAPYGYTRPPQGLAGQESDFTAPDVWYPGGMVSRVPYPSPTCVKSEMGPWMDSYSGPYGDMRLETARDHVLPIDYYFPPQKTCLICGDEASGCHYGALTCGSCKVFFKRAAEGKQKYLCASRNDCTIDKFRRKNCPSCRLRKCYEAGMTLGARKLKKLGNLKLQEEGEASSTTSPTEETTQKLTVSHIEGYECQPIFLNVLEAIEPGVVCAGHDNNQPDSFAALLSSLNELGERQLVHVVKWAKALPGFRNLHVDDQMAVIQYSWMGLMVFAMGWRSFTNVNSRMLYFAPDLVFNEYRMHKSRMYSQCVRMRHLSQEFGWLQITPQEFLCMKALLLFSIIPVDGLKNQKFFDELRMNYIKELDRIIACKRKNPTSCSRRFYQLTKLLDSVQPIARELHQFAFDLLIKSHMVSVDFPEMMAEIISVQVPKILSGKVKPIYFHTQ
T1 sequence (Q96SW2 whole entry partner): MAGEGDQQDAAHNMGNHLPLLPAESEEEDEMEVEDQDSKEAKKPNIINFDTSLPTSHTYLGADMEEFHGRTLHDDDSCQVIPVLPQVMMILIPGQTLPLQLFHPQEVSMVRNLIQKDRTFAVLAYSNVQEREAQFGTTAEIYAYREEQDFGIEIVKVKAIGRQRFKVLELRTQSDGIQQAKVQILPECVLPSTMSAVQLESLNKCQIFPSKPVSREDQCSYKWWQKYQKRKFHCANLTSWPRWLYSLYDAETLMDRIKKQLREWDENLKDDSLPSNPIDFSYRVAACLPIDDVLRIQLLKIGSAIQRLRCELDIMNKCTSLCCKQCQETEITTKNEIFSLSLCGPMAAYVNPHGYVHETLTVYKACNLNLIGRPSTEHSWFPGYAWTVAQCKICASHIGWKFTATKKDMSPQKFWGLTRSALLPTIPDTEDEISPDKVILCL

Structure (SMILES) | inhibition at 0.01 µM | inhibition at 0.1 µM | inhibition at 1 µM
N#Cc1ccc(N2CCC(C(=O)Nc3ncc(N4CCC(CN5CCN(CC6CCN(c7ccc8c(c7)C(=O)N(C7CCC(=O)NC7=O)C8=O)CC6)CC5)CC4)cn3)CC2)cc1C(F)(F)F (stereo not drawn) [Example 157, 1-(4-cyano-3-(trifluoromethyl)phenyl)-N-(5-(4-((4-((1-(2-(2,6-dioxopiperidin-3-yl)-1,3-dioxoisoindolin-5-yl)piperidin-4-yl)methyl)piperazin-1-yl)methyl)piperidin-1-yl)pyrimidin-2-yl)piperidine-4-carboxamide] | 0% | 33% | 78%
N#Cc1ccc(N2CCC(C(=O)Nc3ncc(N4CCC(CN5CCN(C[C@H]6CCN(c7ccc8c(c7)C(=O)N(C7CCC(=O)NC7=O)C8=O)C6)CC5)CC4)cn3)CC2)cc1C(F)(F)F (stereo partly drawn) [Example 158, 1-(4-cyano-3-(trifluoromethyl)phenyl)-N-(5-(4-((4-(((3R)-1-(2-(2,6-dioxopiperidin-3-yl)-1,3-dioxoisoindolin-5-yl)pyrrolidin-3-yl)methyl)piperazin-1-yl)methyl)piperidin-1-yl)pyrimidin-2-yl)piperidine-4-carboxamide] | -7% | 27% | 65%
N#Cc1ccc(N2CCC(C(=O)Nc3ncc(N4CCC(CN5CCN(CC6CCN(c7cc8c(cc7F)C(=O)N(C7CCC(=O)NC7=O)C8=O)CC6)CC5)CC4)cn3)CC2)cc1C(F)(F)F (stereo not drawn) [Example 159, 1-(4-cyano-3-(trifluoromethyl)phenyl)-N-(5-(4-((4-((1-(2-(2,6-dioxopiperidin-3-yl)-6-fluoro-1,3-dioxoisoindolin-5-yl)piperidin-4-yl)methyl)piperazin-1-yl)methyl)piperidin-1-yl)pyrimidin-2-yl)piperidine-4-carboxamide] | -16% | -5% | 84%
N#Cc1ccc(N2CCC(C(=O)Nc3ncc(N4CCC(CN5CCN(C[C@H]6CCN(c7cc8c(cc7F)C(=O)N(C7CCC(=O)NC7=O)C8=O)C6)CC5)CC4)cn3)CC2)cc1C(F)(F)F (stereo partly drawn) [Example 160, 1-(4-cyano-3-(trifluoromethyl)phenyl)-N-(5-(4-((4-(((3R)-1-(2-(2,6-dioxopiperidin-3-yl)-6-fluoro-1,3-dioxoisoindolin-5-yl)pyrrolidin-3-yl)methyl)piperazin-1-yl)methyl)piperidin-1-yl)pyrimidin-2-yl)piperidine-4-carboxamide] | -19% | 4% | 71%
N#Cc1ccc(N2CCC(C(=O)Nc3ccc(CN4CCC(CN5CCN(c6ccc7c(c6)C(=O)N(C6CCC(=O)NC6=O)C7=O)CC5)CC4)cn3)CC2)cc1C(F)(F)F (stereo not drawn) [Example 161, 1-(4-cyano-3-(trifluoromethyl)phenyl)-N-(5-((4-((4-(2-(2,6-dioxopiperidin-3-yl)-1,3-dioxoisoindolin-5-yl)piperazin-1-yl)methyl)piperidin-1-yl)methyl)pyridin-2-yl)piperidine-4-carboxamide] | 9% | 58% | 86%
N#Cc1ccc(N2CCC(C(=O)Nc3ccc(CN4CCN(CC5CCN(c6ccc7c(c6)C(=O)N(C6CCC(=O)NC6=O)C7=O)CC5)CC4)cn3)CC2)cc1C(F)(F)F (stereo not drawn) [Example 162, 1-(4-cyano-3-(trifluoromethyl)phenyl)-N-(5-((4-((1-(2-(2,6-dioxopiperidin-3-yl)-1,3-dioxoisoindolin-5-yl)piperidin-4-yl)methyl)piperazin-1-yl)methyl)pyridin-2-yl)piperidine-4-carboxamide] | 62% | 95% | 97%
N#Cc1ccc(N2CCC(C(=O)Nc3ccc(CN4CCC(CN5CCC(Oc6ccc7c(c6)C(=O)N(C6CCC(=O)NC6=O)C7=O)CC5)CC4)cn3)CC2)cc1C(F)(F)F (stereo not drawn) [Example 163, 1-(4-cyano-3-(trifluoromethyl)phenyl)-N-(5-((4-((4-((2-(2,6-dioxopiperidin-3-yl)-1,3-dioxoisoindolin-5-yl)oxy)piperidin-1-yl)methyl)piperidin-1-yl)methyl)pyridin-2-yl)piperidine-4-carboxamide] | -14% | 60% | 78%
N#Cc1ccc(N2CCC(C(=O)Nc3ccc(CC4CCN(CC5CCN(c6ccc7c(c6)C(=O)N(C6CCC(=O)NC6=O)C7=O)CC5)CC4)cn3)CC2)cc1C(F)(F)F (stereo not drawn) [Example 164, 1-(4-cyano-3-(trifluoromethyl)phenyl)-N-(5-((1-((1-(2-(2,6-dioxopiperidin-3-yl)-1,3-dioxoisoindolin-5-yl)piperidin-4-yl)methyl)piperidin-4-yl)methyl)pyridin-2-yl)piperidine-4-carboxamide] | 79% | 96% | 97%
N#Cc1ccc(N2CCC(C(=O)Nc3ccc(CCN4CCC(CN5CCN(c6ccc7c(c6)C(=O)N(C6CCC(=O)NC6=O)C7=O)CC5)CC4)cn3)CC2)cc1C(F)(F)F (stereo not drawn) [Example 165, 1-(4-cyano-3-(trifluoromethyl)phenyl)-N-(5-(2-(4-((4-(2-(2,6-dioxopiperidin-3-yl)-1,3-dioxoisoindolin-5-yl)piperazin-1-yl)methyl)piperidin-1-yl)ethyl)pyridin-2-yl)piperidine-4-carboxamide] | 42% | 87% | 95%
N#Cc1ccc(N2CCC(C(=O)Nc3ccc(CCN4CCN(CC5CCN(c6ccc7c(c6)C(=O)N(C6CCC(=O)NC6=O)C7=O)CC5)CC4)cn3)CC2)cc1C(F)(F)F (stereo not drawn) [Example 166, 1-(4-cyano-3-(trifluoromethyl)phenyl)-N-(5-(2-(4-((1-(2-(2,6-dioxopiperidin-3-yl)-1,3-dioxoisoindolin-5-yl)piperidin-4-yl)methyl)piperazin-1-yl)ethyl)pyridin-2-yl)piperidine-4-carboxamide] | 69% | 96% | 97%
N#Cc1ccc(N2CCC(C(=O)Nc3ccc(CCN4CCC(Oc5ccc6c(c5)C(=O)N(C5CCC(=O)NC5=O)C6=O)CC4)cn3)CC2)cc1C(F)(F)F (stereo not drawn) [Example 167, 1-(4-cyano-3-(trifluoromethyl)phenyl)-N-(5-(2-(4-((2-(2,6-dioxopiperidin-3-yl)-1,3-dioxoisoindolin-5-yl)oxy)piperidin-1-yl)ethyl)pyridin-2-yl)piperidine-4-carboxamide] | 25% | 67% | 85%
N#Cc1ccc(N2CCC(C(=O)Nc3ccc(OCCN4CCN(CC5CCN(c6ccc7c(c6)C(=O)N(C6CCC(=O)NC6=O)C7=O)CC5)CC4)cn3)CC2)cc1C(F)(F)F (stereo not drawn) [Example 168, 1-(4-cyano-3-(trifluoromethyl)phenyl)-N-(5-(2-(4-((1-(2-(2,6-dioxopiperidin-3-yl)-1,3-dioxoisoindolin-5-yl)piperidin-4-yl)methyl)piperazin-1-yl)ethoxy)pyridin-2-yl)piperidine-4-carboxamide] | 73% | 97% | 99%
N#Cc1ccc(N2CCC(C(=O)Nc3ccc(OC4CCN(CC5CCN(c6cc7c(cc6F)C(=O)N(C6CCC(=O)NC6=O)C7=O)CC5)CC4)cn3)CC2)cc1C(F)(F)F (stereo not drawn) [Example 170, 1-(4-cyano-3-(trifluoromethyl)phenyl)-N-(5-((1-((1-(2-(2,6-dioxopiperidin-3-yl)-6-fluoro-1,3-dioxoisoindolin-5-yl)piperidin-4-yl)methyl)piperidin-4-yl)oxy)pyridin-2-yl)piperidine-4-carboxamide] | 52% | 90% | 97%
N#Cc1ccc(N2CCC(C(=O)Nc3ccc(OC4CCN(CC5CN(c6ccc7c(c6)C(=O)N(C6CCC(=O)NC6=O)C7=O)C5)CC4)cn3)CC2)cc1C(F)(F)F (stereo not drawn) [Example 171, 1-(4-cyano-3-(trifluoromethyl)phenyl)-N-(5-((1-((1-(2-(2,6-dioxopiperidin-3-yl)-1,3-dioxoisoindolin-5-yl)azetidin-3-yl)methyl)piperidin-4-yl)oxy)pyridin-2-yl)piperidine-4-carboxamide] | 69% | 93% | 95%
CC1(CN2CCC(Oc3ccc(NC(=O)C4CCN(c5ccc(C#N)c(C(F)(F)F)c5)CC4)nc3)CC2)CN(c2ccc3c(c2)C(=O)N(C2CCC(=O)NC2=O)C3=O)C1 (stereo not drawn) [Example 172, 1-(4-cyano-3-(trifluoromethyl)phenyl)-N-(5-((1-((1-(2-(2,6-dioxopiperidin-3-yl)-1,3-dioxoisoindolin-5-yl)-3-methylazetidin-3-yl)methyl)piperidin-4-yl)oxy)pyridin-2-yl)piperidine-4-carboxamide] | 56% | 91% | 91%
N#Cc1ccc(N2CCC(C(=O)Nc3ccc(OC4CN(CC5CCN(c6ccc7c(c6)C(=O)N(C6CCC(=O)NC6=O)C7=O)CC5)C4)cn3)CC2)cc1C(F)(F)F (stereo not drawn) [Example 173, 1-(4-cyano-3-(trifluoromethyl)phenyl)-N-(5-((1-((1-(2-(2,6-dioxopiperidin-3-yl)-1,3-dioxoisoindolin-5-yl)piperidin-4-yl)methyl)azetidin-3-yl)oxy)pyridin-2-yl)piperidine-4-carboxamide] | 58% | 90% | 92%
N#Cc1ccc(N2CCC(C(=O)Nc3ccc(OCC4CCN(CC5CCN(c6ccc7c(c6)C(=O)N(C6CCC(=O)NC6=O)C7=O)CC5)CC4)cn3)CC2)cc1C(F)(F)F (stereo not drawn) [Example 174, 1-(4-cyano-3-(trifluoromethyl)phenyl)-N-(5-((1-((1-(2-(2,6-dioxopiperidin-3-yl)-1,3-dioxoisoindolin-5-yl)piperidin-4-yl)methyl)piperidin-4-yl)methoxy)pyridin-2-yl)piperidine-4-carboxamide] | 73% | 91% | 95%
